Laboratory results as given in paper PMC9065678, “BI 1015550 is a PDE4B Inhibitor and a Clinical Drug Candidate for the Oral Treatment of Idiopathic Pulmonary Fibrosis” (Frontiers in Pharmacology, 2022).

Experiments:
PDE7A = biological target: T1, PDE7A (Homo sapiens, UniProt Q13946); assay: Recombinant PDE activity, scintillation proximity assay: PDE7A; assay type: biochemical; conditions: calculated IC50
T1 construct: made in house; host or cells: SF9 insect cells (baculovirus, Bac-To-Bac, pFastbac)
Excerpt: For the preparation of human recombinant PDEs of interest, the Bac-To-Bac baculoviral expression system from Invitrogen (Carlsbad, CA, United States) was used according to the instruction manual. In short, the full-length open reading frames of PDE1C (National Center for Biotechnology Information Gene-Ref-Seq identifier NG_051183), PDE3A (NG_030033), PDE4A (NG_029594, AA 156–886), PDE4C (NG_029629), PDE7A (NG_029614), and PDE9A (NG_047067) were cloned into the plasmid vector pFastbac. For PDE4B and PDE4D, active site fragments were used (PDE4B NG_029038: AA 152–484, PDE4D NG_027957, AA 79–438). The plasmids were transformed into DH10Bac bacteria, SF9 insect cells were transfected with the bacmid DNA, and the resulting baculoviruses were stored and used for further rounds of infections. […] The protein content was measured and an equal volume of 87% (v/v) glycerol was added prior to freezing at −20°C. […] The reaction was stopped by addition of 50 µL of yttrium silicate scintillation proximity assay beads (17.8 mg/mL, 18 mM zinc sulfate in H2O) and the amount of produced [^3H]AMP/[^3H]GMP associated was determined using a Wallac Microbeta scintillation counter. […]

[1] = system: LPS-stimulated IL-6 release; assay: LPS-stimulated IL-6 release in human whole blood; assay type: cell-based; conditions: high concentrations
Protocol: (§1) Heparinized whole blood was collected from the Aorta abdominalis of WI (Han) male rats (Charles River Laboratories, Sulzfeld, Germany) and from healthy male human donors, and treated with 1 µL (rat) or 2.5 µL (human) of BI 1015550 or vehicle [final DMSO concentration 0.5% (v/v)]. Final assay volumes were 200 μL (rat) and 500 μL (human). After incubation for 30 min at 37°C, 95% humidity, and 5% CO2, cultures were treated with LPS [final concentration 10 µg/mL (rat), 0.1 µg/mL (human)] or saline. After 7 h, plates were centrifuged at 3.200 × g at 4°C for 10 min and plasma was used for cytokine measurement. Meso Scale Discovery (MSD) (Rockville, MD, United States) rat and human pro-inflammatory panels were used for detection of TNF-α and IL-6 in rat plasma [diluted 1:2 (v/v)]) and human plasma [negative control undiluted, other samples diluted 1:200 (v/v)] according to the manufacturer’s instructions.

[2] = system: LPS-induced lung neutrophil influx; assay: LPS-induced lung neutrophil influx in male Wistar rats; assay type: in vivo, rat; conditions: oral, data not shown
Excerpt: Compared with other animal species used to study emesis induction by PDE4 inhibitors, like ferrets, dogs, minipigs, or monkeys, Suncus murinus allows the testing of a sufficient number of animals to provide a high statistical power. […] Male Suncus murinus (weight 50–55 g) from Boehringer Ingelheim (Biberach an der Riss, Germany) or male Wistar rats (200–250 g, Charles River), eight animals per group, were used. […] For this purpose, animals in the positive control and treatment groups were put into a circular Plexiglas chamber with 16 pie-like compartments for one animal each, and were consecutively exposed to nebulized LPS for 30 min. The LPS solution used for nebulization contained 1 mg/mL LPS in phosphate-buffered saline (PBS). Nebulization was performed with the commercially available PARI Master® nebulizer with a PARI Master® LL adapter (Pari GmbH, Starnberg, Germany). 4 h after LPS exposure, the animals were anesthetized and euthanized by cervical dislocation. After sacrifice, the trachea was cannulated and bronchoalveolar lavage was performed by instilling and re-aspirating two-times 1 mL (Suncus murinus) or 5 mL (rat) lavage buffer (PBS +2% bovine serum albumin). BALF volumes were recorded manually. Determination of neutrophil numbers in BALF was performed using a blood hemacytometer (Sysmex XT-1800i, Kobe, Japan).

[3] = system: LPS-stimulated TNF-α release; assay: LPS-induced TNF-α release in human whole blood; assay type: cell-based; conditions: LPS 0.1 µg/mL
Protocol: as §1

T1 sequence (Q13946 whole entry): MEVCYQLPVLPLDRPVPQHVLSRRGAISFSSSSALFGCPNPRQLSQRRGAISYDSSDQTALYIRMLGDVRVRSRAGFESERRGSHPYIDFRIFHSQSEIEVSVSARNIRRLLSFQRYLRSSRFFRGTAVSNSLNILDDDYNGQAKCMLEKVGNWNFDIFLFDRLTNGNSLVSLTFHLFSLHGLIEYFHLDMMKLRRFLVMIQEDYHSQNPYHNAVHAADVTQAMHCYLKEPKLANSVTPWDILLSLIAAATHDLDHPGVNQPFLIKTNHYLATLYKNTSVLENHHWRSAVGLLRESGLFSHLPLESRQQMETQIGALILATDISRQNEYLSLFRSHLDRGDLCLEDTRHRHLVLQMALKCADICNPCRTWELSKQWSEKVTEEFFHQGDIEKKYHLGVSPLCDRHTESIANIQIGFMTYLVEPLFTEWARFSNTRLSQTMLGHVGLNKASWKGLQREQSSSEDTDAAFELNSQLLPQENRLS

- IC50 (PDE7A): 14 µM
- IC50 [3]: 0.67 µM
Structure (SMILES): [O-][S+]1CCc2nc(N3CCC(c4ncc(Cl)cn4)CC3)nc(NC3(CO)CCC3)c21 (stereo not drawn) [BI 1015550]
- IL-6 increase [1]: did not result in an IL-6 increase
- Maximum inhibition of IL-6 release [1]: 30–40%
- ED50 LPS-induced lung neutrophil influx [2]: 0.1 mg/kg
- Maximal inhibition of TNF-α release [3]: 70–80%
